In patent US20250171404A1, “PCNA INHIBITORS AND USES THEREOF” (CITY OF HOPE, priority 2022, published 2025):

Experiments:
[1] = Compound metabolism in liver microsome; type: in vitro ADME, human; conditions: compared with AOH1160
Procedure: FIGS. 12A-12E. AOH1996 metabolism and in vivo pharmacokinetics. FIG. 12A: Illustration of AOH1160 degradation by carboxyl esterase-mediated cleavage or by hydroxylation. FIG. 12B: Chromatogram of liver microsome reaction mixtures of AOH1160 and AOH1996. The metabolites shown in FIG. 12A are indicated above their corresponding peaks. FIG. 12C: An aliquot of the liver microsome reaction mixture of AOH1996 was taken after various incubation times in the presence or absence of NADPH as the energy source. AOH1996 concentrations, determined by LC/MS-MS, as a percentage of the input concentration were graphed. FIG. 12D: After oral administration, the plasma concentrations of AOH1996 from three male and three female ES1e/SCID mice at the indicated time points were averaged and graphed ±S.D. The inset contains PK parameters determined by a standard noncompartmental method. FIG. 12E: A similar PK study of AOH1996 was performed in dogs.
Measurement of compound metabolism in liver microsome. AOH1160 analogs were incubated in human liver microsomes in the presence or absence of NADPH at 37° C. An aliquot of the reaction mixture was taken after various incubation times. Compound concentration was determined by liquid chromatography-tandem mass spectrometry (LC-MS/MS) as previously described (Gu et al., 2018).

[2] = system: SK-N-DZ neuroblastoma cells; experiment: Clonogenic assay with cisplatin; type: cell-based, human; conditions: 500 nM AOH1996, 18 hours
Procedure: (§1) FIGS. 3A-3D. Therapeutic properties of AOH1996. FIG. 3A: Normal cells (7SM0032) or cancer cells (SH-SY5Y and SK-N-BE(2)c) cells were fixed, stained with PI, and analyzed by flow cytometry following treatment with 500 nM AOH1996 for the indicated time. FIG. 3B: SK-N-DZ neuroblastoma cells and nonmalignant 7SM0032 stem cells were incubated with 500 nM AOH1996 for 24 h. Then, after being fixed on slides, cell apoptosis were analyzed by a TUNEL assay. Left: TMR fluorophore attached to the free ends of DNA indicates cells undergoing apoptosis. DAPI stained nuclei also shown. Right: Average abundance ±S.D. of apoptotic 7SM0032 (black histogram) and SK-N-DZ (grey histogram) cells relative to the total number of cells are shown in 5 randomly selected fields. FIG. 3C: Human SK-N-DZ neuroblastoma cells were treated with or without the indicated concentrations of cisplatin in the absence or presence of 500 nM of AOH1996 for 18 hours. […] The relative number of colonies determined in triplicates for each treatment condition were averaged and graphed ±SDs (*, P<0.01). […] Cell growth was measured as the percentage of cell confluence by imaging every 6 h for a total of 48 h.
Clonogenic Assay. […] The colonies were stained with 0.5% crystal violet and counted. Synergy between AOH1996 and cisplatin was evaluated using combination indices (Cl) based on the Bliss independence model [C]=(EA+EB−EA*EB)/EAB] […]

7SM0032 = experiment: Apoptosis (TUNEL assay), nonmalignant cells; type: cell-based, human; conditions: 500 nM, 24 h; 7SM0032 cells
Procedure: as §1, with “fields.” for “fields. FIG. 3C: Human SK-N-DZ neuroblastoma cells were treated with or without the indicated concentrations of cisplatin in the absence or presence of 500 nM of AOH1996 for 18 hours.”
Cell apoptosis was measured on a chamber slide at a seeding density of 1×10^5/mL. After treatment with 500 nM AOH1996 for 24 h, cells were fixed and analyzed by a TUNEL assay using the TMR red in situ cell death detection kit (Roche Diagnostics).

[3] = system: more than 70 cancer cell lines; experiment: Growth inhibition across cancer cell lines (GI50); type: cell-based; conditions: read-out: median concentration to achieve 50% growth inhibition (GI50); across more than 70 cancer cell lines

With COc1cccc(Oc2ccccc2NC(=O)CNC(=O)c2cccc3ccccc23)c1 [AOH1996, N-(2-((2-(3-methoxyphenoxy)phenyl)amino)-2-oxoethyl)-1-naphthamide] the metabolic stability [1] was “metabolically more stable than AOH1160”, the “sensitivity to cisplatin (colony formation)” value [2] was “increased the sensitivity of cancer cells to genotoxic agents, including cisplatin” and the apoptosis (7SM0032) was “Nor does it induce apoptosis in 7SM0032 cells”. For the same compound, the GI50 [3] was roughly 0.3 µM.
